Assay results as given in patent US20240279283A1, “CYCLIC PEPTIDE ANTIBIOTICS” (priority 2021, published 2024).
Bridge positions count the residues as written; N and C are the ends. Square brackets hold non-standard residues; d marks the D form. Peptide text beside a SMILES is read from it. 1Nal = N[C@@H](Cc1cccc2ccccc12)C(=O)O; d1Nal = N[C@H](Cc1cccc2ccccc12)C(=O)O; dHis(π-Me) = Cn1cncc1C[C@@H](N)C(=O)O; His(π-Me) = Cn1cncc1C[C@H](N)C(=O)O; NMeY = CN[C@@H](Cc1ccc(O)cc1)C(=O)O; dNMeY = CN[C@H](Cc1ccc(O)cc1)C(=O)O; Gly(N(CH2)3NH2) = NCCCNCC(=O)O; aThr = C[C@H](O)[C@H](N)C(=O)O; dAbu = CC[C@@H](N)C(=O)O; Abu = CC[C@H](N)C(=O)O

How the values were obtained:
Assay type in all cases: cell-based
Conditions in all cases: LB broth, 5×10^5 CFU/ml, 37° C., 18 hours, scored by eye
E. coli BW25113 = experiment: Minimum Inhibitory Concentration (MIC) determination, E. coli BW25113; parameters: unit not given here
In short: (§1)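 Peptides, diluted two-fold in LB broth from 10 mM DMSO stocks, were inoculated with 5×10^5 CFU/ml of each strain. Incubation was 18 h at 37 °C without shaking. MIC is the lowest concentration preventing visible growth, scored by eye.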

E. coli 25922 IMP = experiment: Minimum Inhibitory Concentration (MIC) determination, E. coli 25922 IMP
In short: as §1

E. coli 25922 = experiment: Minimum Inhibitory Concentration (MIC) determination, E. coli 25922; parameters: unit not given here
Experimental: (§2) MICs were determined by performing two-fold serial dilutions of peptides in LB broth to a final volume of 0.1 ml in round-bottom 96-well assay plates (Corning Life Sciences No 3788). Peptides were initially resuspended in 100% DMSO to 10 mM and subsequently diluted in LB medium to the appropriate concentration. Each well was inoculated with 5×10^5 CFU/ml of the screening stain and incubated at 37° C. without agitation for 18 hours. Plates were scored by eye, and the lowest compound concentration preventing visible growth was determined to be the MIC.

E. cloacae ATCC222 = experiment: Minimum Inhibitory Concentration (MIC) determination, E. cloacae ATCC222; parameters: unit not given here
Experimental: as §2

K. pneumoniae ATCC43816 = experiment: Minimum Inhibitory Concentration (MIC) determination, K. pneumoniae ATCC43816; parameters: unit not given here
Experimental: as §2

Structure (SMILES) | MIC E. coli BW25113 WUXI::MIC (E. coli BW25113) | MIC E. coli 25922 IMP WUXI::MIC (E. coli 25922 IMP) | MIC E. coli 25922 WUXI::MIC (E. coli 25922) | MIC E. cloacae ATCC222 WUXI::MIC (E. cloacae ATCC222) | MIC K. pneumoniae ATCC43816 Wuxi::MIC (K. pneumoniae ATCC43816)
CC[C@@H]1NC(=O)[C@H](Cc2ccccc2)NC(=O)CSC[C@@H](C(=O)NCC(N)=O)NC(=O)[C@H](Cc2cncn2C)NC(=O)[C@H](CCCNC(=N)N)NC(=O)[C@H](Cc2c[nH]cn2)NC(=O)[C@H](Cc2ccc(O)cc2)N(C)C(=O)[C@H](CCCNC(=N)N)NC(=O)[C@H](CO)NC(=O)CN(CCCN)C(=O)[C@H](Cc2c[nH]cn2)NC(=O)[C@H](Cc2cccc3ccccc23)NC1=O [Compound 29] ({CH2CO}-F[Abu][1Nal]H[Gly(N(CH2)3NH2)]SR[NMeY]HR[His(π-Me)]CG-NH2; thioether N-12) | 6.3 | 0.001 | 1.6 | 0.1 | 3.1
CC[C@@H]1NC(=O)[C@H](Cc2ccccc2)NC(=O)CSC[C@@H](C(=O)NCC(N)=O)NC(=O)[C@H](Cc2cncn2C)NC(=O)[C@H](CCCNC(=N)N)NC(=O)[C@H](Cc2c[nH]cn2)NC(=O)[C@H](Cc2ccc(O)cc2)N(C)C(=O)[C@H](CCCNC(=N)N)NC(=O)[C@H]([C@H](C)O)NC(=O)CNC(=O)[C@H](Cc2c[nH]cn2)NC(=O)[C@H](Cc2cccc3ccccc23)NC1=O [Compound 31] ({CH2CO}-F[Abu][1Nal]HG[aThr]R[NMeY]HR[His(π-Me)]CG-NH2; thioether N-12) | 50 | 0.016 | 25 | 6.3 | 50
CC[C@H]1NC(=O)[C@@H](Cc2ccccc2)NC(=O)CSC[C@H](C(=O)NCC(N)=O)NC(=O)[C@@H](Cc2cncn2C)NC(=O)[C@@H](CCCNC(=N)N)NC(=O)[C@@H](Cc2c[nH]cn2)NC(=O)[C@@H](Cc2ccc(O)cc2)N(C)C(=O)[C@@H](CCCNC(=N)N)NC(=O)[C@@H](CO)NC(=O)[C@@H](CCCNC(=N)N)NC(=O)[C@@H](Cc2c[nH]cn2)NC(=O)[C@@H](Cc2cccc3ccccc23)NC1=O [Compound 28] ({CH2CO}-[dF][dAbu][d1Nal][dH][dR][dS][dR][dNMeY][dH][dR][dHis(π-Me)][dC]G-NH2; thioether N-12) | 6.3 | 0.002 | 3.1 | 0.2 | 3.1
CC[C@@H](C)[C@H]1NC(=O)[C@@H](Cc2ccccc2)NC(=O)CSC[C@H](C(=O)NCC(N)=O)NC(=O)[C@@H](Cc2cncn2C)NC(=O)[C@@H](CCCNC(=N)N)NC(=O)[C@@H](Cc2cnc[nH]2)NC(=O)[C@@H](Cc2ccc(O)cc2)N(C)C(=O)[C@@H](CCCNC(=N)N)NC(=O)[C@@H](CO)NC(=O)CNC(=O)[C@@H](Cc2cnc[nH]2)NC(=O)[C@@H](Cc2cccc3ccccc23)NC1=O (mixture of isomers) [Compound 18] | 19 | 0.00585 | 9.65 | 0.78 | 19
CC[C@@H]1NC(=O)[C@H](Cc2ccccc2)NC(=O)CSC[C@@H](C(=O)NCC(N)=O)NC(=O)[C@H](Cc2cncn2C)NC(=O)[C@H](CCCNC(=N)N)NC(=O)[C@H](Cc2c[nH]cn2)NC(=O)[C@H](Cc2ccc(O)cc2)N(C)C(=O)[C@H](CCCNC(=N)N)NC(=O)[C@H](CO)NC(=O)[C@@H](C)NC(=O)[C@H](Cc2c[nH]cn2)NC(=O)[C@H](Cc2cccc3ccccc23)NC1=O [Compound 26] ({CH2CO}-F[Abu][1Nal]H[dA]SR[NMeY]HR[His(π-Me)]CG-NH2; thioether N-12) | 6.3 | 0.0039 | 3.1 | 0.78 | 25
